From patent US9789082B2, “Somatostatin receptor subtype 4 (SSTR4) agonists” (Centrexion Therapeutics Corporation, priority 2013, dated 2017)

How the values were obtained:
[1] = target: human Somatostatin 4 receptor (SSTR4) (Homo sapiens (Human), UniProt P31391); assay: cAMP assay with human somatostatin 4 receptor (hSSTR4 expressing H4 cells); format: cell-based; conditions: cAMP assay, read-out: SSTR4 agonism EC50
Procedure: Camp Assay Method Description for cAMP Assay with Human Somatostatin 4 Receptor
The activation of the SSTR4 receptor (Gi coupled) causes an inhibition of intracellular cAMP after stimulation with Forskolin, which can be quantifiable by use of a suitable assay Kit and an adequate plate reader. This technique is used to characterize pharmacological effects of the SSTR4 receptor agonists by use of hSSTR4 expressing H4 cells.
Compounds are dissolved and diluted in DMSO. The final test solution contains 1% DMSO. […] Cells are centrifuged and suspended in assay buffer (incl. 1:100 diluted Alexa antibody).
For the assay 5 μl of a cell suspension (approximately 5000 cells/well)—incl. Alexa antibody (diluted 1:100) are added into a 384 well MTP microtitre plate excepting one row or column (depending on the plate layout), which is reserved for the standard curve. Then 2 μl of compound sample is added as concentration response curve (e.g. 1e-5 M to 6e-10 M), usually in triplicates. Each assay contains incubations with vehicle controls instead of compound as controls for non-inhibited cAMP generation (100% CTL; ‘high values’) and incubations with 1 μM Somatosatin as controls for full inhibition and background (0% CTL; […]). […] Then the plates are shaken briefly and incubated for 60 min at room temperature. After 60 min 10 μl of the detection mix is added into all wells followed by an additional incubation period of 1 h. The plates are read in a suitable plate reader.
From this ratio, cAMP concentrations are calculated from standard curve and the EC50 is estimated by least square curve fit program.
The EC50 values were obtained with the aid of the above described cAMP ASSAY.

[2] = Metabolic stability in pooled human liver microsomes (half-life); format: in vitro ADME; conditions: 1 μM test compound; for half-life at 1 μM: pooled human liver microsomes, pH 7.6, 37° C., read-out: Half-life t1/2; for Half-life t1/2: 37° C.
Procedure: The metabolic stability of the compounds according to the invention may be investigated as follows:
The metabolic degradation of the test compound is assayed at 37° C. with pooled human liver microsomes. The final incubation volume of 100 μl per time point contains TRIS buffer pH 7.6 at room temperature (0.1 M), magnesium chloride (5 mM), microsomal protein (1 mg/mL) and the test compound at a final concentration of 1 μM. Following a short preincubation period at 37° C., the reactions are initiated by addition of beta-nicotinamide adenine dinucleotide phosphate, reduced form (NADPH, 1 mM), and terminated by transferring an aliquot into solvent after different time points. After centrifugation (10000 g, 5 min), an aliquot of the supernatant is assayed by LC-MS/MS for the amount of parent compound. The half-life is determined by the slope of the semi-logarithmic plot of the concentration-time profile.

Sequence of human Somatostatin 4 receptor (SSTR4) (P31391 whole entry): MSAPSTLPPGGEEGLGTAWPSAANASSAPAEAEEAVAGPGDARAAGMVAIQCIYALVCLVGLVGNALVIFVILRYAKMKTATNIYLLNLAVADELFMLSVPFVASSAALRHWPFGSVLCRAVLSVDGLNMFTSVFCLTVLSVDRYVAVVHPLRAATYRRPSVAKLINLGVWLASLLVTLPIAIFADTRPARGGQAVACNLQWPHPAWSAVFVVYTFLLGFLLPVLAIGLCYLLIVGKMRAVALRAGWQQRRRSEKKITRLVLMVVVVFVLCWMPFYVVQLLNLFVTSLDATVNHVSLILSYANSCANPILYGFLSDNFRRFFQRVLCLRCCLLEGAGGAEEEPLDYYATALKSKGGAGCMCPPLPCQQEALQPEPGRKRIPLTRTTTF

SMILES | EC50 [1] [nM] | half-life at 1 μM [2] [h] | Half-life t1/2 [2] [h]
CC(C)(COc1cnc(Cl)c2ccccc12)NC(=O)[C@H]1[C@@H]2CNC[C@@H]21 [Example 53] | 9.8 | 0.783 | 
CC(C)(NC(=O)[C@H]1[C@@H]2CNC[C@@H]21)c1nc(C(F)(F)F)c2ccccn12.Cl [Example 31] | 1.9 | > 2.17 | 
Cc1cccn2c([C@H](C)NC(=O)[C@H]3[C@@H]4CNC[C@@H]43)ncc12 [Example 159] | 15.4 | > 2.17 | 
Cc1cc(C2CC2)ccc1OCC(C)(C)NC(=O)[C@H]1[C@@H]2CNC[C@@H]21 [Example 65] | 29.8 |  | >2.17
Cc1cccc2c(C(C)NC(=O)[C@H]3[C@@H]4CNC[C@@H]43)nn(C)c12 (single isomer, unassigned) [Example 119] | 3.2 | > 2.17 | 
Cc1cccn2c(C3(NC(=O)[C@H]4[C@@H]5CNC[C@@H]54)CCC3)ncc12 [Example 137] | 0.8 | > 2.17 | 
Cc1cccc2c(C(C)(C)NC(=O)[C@H]3[C@@H]4CNC[C@@H]43)n(C)nc12 [Example 108] |  | > 2.17 | 
Cl.Cn1nccc1OCC(C)(C)NC(=O)[C@H]1[C@@H]2CNC[C@@H]21 [Example 60] | 76.9 | > 2.17 | 
CC(C)(COc1ccccc1Cl)NC(=O)[C@H]1[C@@H]2CNC[C@@H]21.Cl [Example 42] | 14.7 | > 2.17 | 
CC(C)(NC(=O)[C@H]1[C@@H]2CNC[C@@H]21)c1cc2ccccn2c1 [Example 87] | 22.9 | > 2.17 | 
CCc1ccccc1OCC(C)(C)NC(=O)[C@H]1[C@@H]2CNC[C@@H]21.Cl [Example 39] | 3 | > 2.17 | 
O=C(NC1(Cc2ccccc2C(F)(F)F)CC1)[C@H]1[C@@H]2CNC[C@@H]21 [Example 2] | 56.5 | > 2.17 | 
CC(C)(NC(=O)[C@H]1[C@@H]2CNC[C@@H]21)c1n[nH]c2c(C(F)(F)F)cccc12 [Example 110] |  |  | >2.17
CC(NC(=O)[C@H]1[C@@H]2CNC[C@@H]21)c1nn(C)c2ccccc12 (stereo partly shown) [Example 111] | 14.5 | > 2.17 | 
Cc1ccccc1OCC(C)NC(=O)[C@H]1[C@@H]2CNC[C@@H]21.Cl (stereo partly shown) [Example 59] | 64.3 | > 2.17 | 
Cc1cccc2c(C(C)(C)NC(=O)[C@H]3[C@@H]4CNC[C@@H]43)ncnc12 [Example 88] | 0.8 | > 2.17 | 
CC(C)(COc1ncccc1C(F)(F)F)NC(=O)[C@H]1[C@@H]2CNC[C@@H]21 [Example 52] | 2.4 | > 2.17 | 
Cc1cc(F)ccc1OCC(C)(C)NC(=O)[C@H]1[C@@H]2CNC[C@@H]21.Cl [Example 13] | 2.4 | > 2.17 | 
Cn1nc(C(C)(C)NC(=O)[C@H]2[C@@H]3CNC[C@@H]32)c2ccc(F)cc21 [Example 75] | 0.4 | > 2.17 | 
Cc1nc(C(C)(C)NC(=O)[C@H]2[C@@H]3CNC[C@@H]32)n2cccc(F)c12 [Example 151] | 0.6 | > 2.17 | 
Cc1cccn2c(C(C)(C)NC(=O)[C@H]3[C@@H]4CNC[C@@H]43)cnc12 [Example 150] | 0.9 | > 2.17 | 
CCn1nc(C(C)(C)NC(=O)[C@H]2[C@@H]3CNC[C@@H]32)c2ccccc21 [Example 95] | 3.6 | > 2.17 | 
Cc1cc(C#N)ccc1OCC(C)(C)NC(=O)[C@H]1[C@@H]2CNC[C@@H]21.Cl [Example 17] | 1 | > 2.17 | 
CC(C)(COc1ccccc1C1CC1)NC(=O)[C@H]1[C@@H]2CNC[C@@H]21 [Example 70] | 5.7 | > 2.17 | 
Cc1cc(F)cn2c(C(C)(C)NC(=O)[C@H]3[C@@H]4CNC[C@@H]43)ncc12 [Example 158] | 0.8 | > 2.17 | 
Cc1cccn2c(C(C)(C)NC(=O)[C@H]3[C@@H]4CNC[C@@H]43)nnc12 [Example 142] | 4 | > 2.17 | 

SMILES | EC50 [1] [nM] | half-life at 1 μM [2] [h] | Half-life t1/2 [2] [h]
Cc1ncccc1OCC(C)(C)NC(=O)[C@H]1[C@@H]2CNC[C@@H]21.Cl [Example 44] | 361 | > 2.17 | 
Cn1nc(C(C)(C)NC(=O)[C@H]2[C@@H]3CNC[C@@H]32)c2cccc(Cl)c21 [Example 106] |  | > 2.17 | 
CC(C)(NC(=O)[C@H]1[C@@H]2CNC[C@@H]21)c1ncc2ccccn12.Cl [Example 68] | 4.7 | > 2.17 | 
CC(NC(=O)[C@H]1[C@@H]2CNC[C@@H]21)c1nn(C)c2c(Cl)cccc12 (single isomer, unassigned) [Example 116] | 2.1 | > 2.17 | 
CC(C)(NC(=O)[C@H]1[C@@H]2CNC[C@@H]21)c1cnn2ccccc12 [Example 167] | 4.9 | > 2.17 | 
Cc1cccc(OCC(C)(C)NC(=O)[C@H]2[C@@H]3CNC[C@@H]32)c1 [Example 43] | 185 | > 2.17 | 
CC(NC(=O)[C@H]1[C@@H]2CNC[C@@H]21)c1nn(C)c2ccccc12 (single isomer, unassigned) [Example 113] | 19.2 | > 2.17 | 
Cc1cccn2c(C(C)(C)NC(=O)[C@H]3[C@@H]4CNC[C@@H]43)nc(C(F)(F)F)c12.Cl [Example 129] | 6.8 | > 2.17 | 
CC(C)(NC(=O)[C@H]1[C@@H]2CNC[C@@H]21)c1ncc2c(Cl)cccn12 [Example 143] | 0.3 | > 2.17 | 
Cc1cc(Cl)ccc1OCC(C)(C)NC(=O)[C@H]1[C@@H]2CNC[C@@H]21.Cl [Example 15] | 7.8 | > 2.17 | 
CC(C)(NC(=O)[C@H]1[C@@H]2CNC[C@@H]21)c1ncc2c(C3CC3)cccn12 [Example 146] | 2.6 | > 2.17 | 
C[C@H](NC(=O)[C@H]1[C@@H]2CNC[C@@H]21)c1cccc2ccccc12 [Example 10] | 10.7 | > 2.17 | 
Cc1ccnnc1OCC(C)(C)NC(=O)[C@H]1[C@@H]2CNC[C@@H]21.Cl [Example 67] | 66.3 | > 2.17 | 
COc1cccn2c(C(C)(C)NC(=O)[C@H]3[C@@H]4CNC[C@@H]43)ncc12 [Example 140] | 0.6 | > 2.17 | 
CC(C)(COc1ncccc1C1CC1)NC(=O)[C@H]1[C@@H]2CNC[C@@H]21 [Example 64] | 2 | > 2.17 | 
CC(C)(NC(=O)[C@H]1[C@@H]2CNC[C@@H]21)c1nc(C2CC2)nc2ccccc12 [Example 141] | 3.3 | > 2.17 | 
Cc1nc(C(C)NC(=O)[C@H]2[C@@H]3CNC[C@@H]32)c2ccccc2n1 (stereo partly shown) [Example 161] | 764 |  | 
CC(C)(NC(=O)[C@H]1[C@@H]2CNC[C@@H]21)C1COc2ccccc21 (single isomer, unassigned) [Example 174] | 100 |  | 
CC(C)(NC(=O)[C@H]1[C@@H]2CNC[C@@H]21)c1nc(C(F)(F)F)c2c(F)cccn12 [Example 127] | 31.9 |  | 
Cc1cccc2c(C(C)NC(=O)[C@H]3[C@@H]4CNC[C@@H]43)nn(C)c12 (single isomer, unassigned) [Example 118] | 39.2 |  | 
CC(C)(CCc1ncccc1C(F)(F)F)NC(=O)[C@H]1[C@@H]2CNC[C@@H]21 [Example 29] | 60.4 |  | 
CC(NC(=O)[C@H]1[C@@H]2CNC[C@@H]21)c1nn(C)c2c(Cl)cccc12 (single isomer, unassigned) [Example 115] | 21.3 |  | 
O=C(NC1(c2nc3ccc(Cl)cc3[nH]2)CCOC1)[C@H]1[C@@H]2CNC[C@@H]21 (stereo partly shown) [Example 169] | 313 |  | 
Cc1cc(C(F)(F)F)ccc1OCC(C)(C)NC(=O)[C@H]1[C@@H]2CNC[C@@H]21 [Example 19] | 141 |  | 
CC(C)(NC(=O)[C@H]1[C@@H]2CNC[C@@H]21)c1ncc2ccc(C(F)(F)F)cn12 [Example 121] | 61.5 |  | 
CC(C)(COc1noc2ccccc12)NC(=O)[C@H]1[C@@H]2CNC[C@@H]21 [Example 62] | 207 |  | 
